Experimental data published in the NIST ThermoML archive (doi:10.1021/je900244c).
Values joined by “and” are separate entries in the source; they are usually repeats but may differ in a detail not shown here. Identical values can stand only once.

Assay: xn = mol fraction of the nth substance listed
Conditions: Gas, Buoyancy - hydrostatic balance with magnetic suspension - two sinkers

CC(C)C [2-methylpropane] + CCC
Conditions | mass density
303.15 K, 440.3 kPa, x2 = 0.503 | 9.824 kg/m3
303.15 K, 440.7 kPa, x2 = 0.503 | 9.834 kg/m3
303.15 K, 449.9 kPa, x2 = 0.503 | 10.061 kg/m3
303.15 K, 450 kPa, x2 = 0.503 | 10.069 kg/m3
303.15 K, 460 kPa, x2 = 0.503 | 10.317 kg/m3
303.15 K, 460.4 kPa, x2 = 0.503 | 10.325 kg/m3
303.15 K, 470.2 kPa, x2 = 0.503 | 10.57 kg/m3
303.15 K, 470.5 kPa, x2 = 0.503 | 10.581 kg/m3
303.15 K, 480 kPa, x2 = 0.503 | 10.823 kg/m3
303.15 K, 480.3 kPa, x2 = 0.503 | 10.83 kg/m3
303.15 K, 489.7 kPa, x2 = 0.503 | 11.072 kg/m3
303.15 K, 490.4 kPa, x2 = 0.503 | 11.087 kg/m3
303.15 K, 500.3 kPa, x2 = 0.503 | 11.344 kg/m3
303.15 K, 500.4 kPa, x2 = 0.503 | 11.344 kg/m3
303.15 K, 510.3 kPa, x2 = 0.503 | 11.608 kg/m3
303.15 K, 510.5 kPa, x2 = 0.503 | 11.6 kg/m3
303.15 K, 520.4 kPa, x2 = 0.503 | 11.861 kg/m3 and 11.864 kg/m3
303.15 K, 530.4 kPa, x2 = 0.503 | 12.121 kg/m3
303.15 K, 530.7 kPa, x2 = 0.503 | 12.129 kg/m3
303.15 K, 540.1 kPa, x2 = 0.503 | 12.37 kg/m3
303.15 K, 540.2 kPa, x2 = 0.503 | 12.378 kg/m3
303.15 K, 550.1 kPa, x2 = 0.503 | 12.642 kg/m3
303.15 K, 550.3 kPa, x2 = 0.503 | 12.642 kg/m3
303.15 K, 560.3 kPa, x2 = 0.503 | 12.914 kg/m3
303.15 K, 564.6 kPa, x2 = 0.503 | 13.019 kg/m3
303.15 K, 570.1 kPa, x2 = 0.503 | 13.17 kg/m3
303.15 K, 570.4 kPa, x2 = 0.503 | 13.178 kg/m3
303.15 K, 575.1 kPa, x2 = 0.503 | 13.306 kg/m3
303.15 K, 580.1 kPa, x2 = 0.503 | 13.434 kg/m3
303.15 K, 580.7 kPa, x2 = 0.503 | 13.453 kg/m3
303.15 K, 584.3 kPa, x2 = 0.503 | 13.548 kg/m3
303.15 K, 599.9 kPa, x2 = 0.799 | 12.55 kg/m3
303.15 K, 600.1 kPa, x2 = 0.799 | 12.557 kg/m3
303.15 K, 609.7 kPa, x2 = 0.799 | 12.784 kg/m3
303.15 K, 610.2 kPa, x2 = 0.799 | 12.802 kg/m3
303.15 K, 620.2 kPa, x2 = 0.799 | 13.04 kg/m3
303.15 K, 630.2 kPa, x2 = 0.799 | 13.289 kg/m3
303.15 K, 639.7 kPa, x2 = 0.799 | 13.516 kg/m3
303.15 K, 649.7 kPa, x2 = 0.799 | 13.757 kg/m3
303.15 K, 659.8 kPa, x2 = 0.799 | 14.006 kg/m3
303.15 K, 680.1 kPa, x2 = 0.799 | 14.516 kg/m3
303.15 K, 700 kPa, x2 = 0.799 | 15.01 kg/m3
303.15 K, 720 kPa, x2 = 0.799 | 15.515 kg/m3
303.15 K, 739.9 kPa, x2 = 0.799 | 16.028 kg/m3
303.15 K, 760.5 kPa, x2 = 0.799 | 16.557 kg/m3
303.15 K, 770.4 kPa, x2 = 0.799 | 16.821 kg/m3
303.15 K, 779.5 kPa, x2 = 0.799 | 17.055 kg/m3
303.15 K, 780.1 kPa, x2 = 0.799 | 17.073 kg/m3
303.15 K, 789.8 kPa, x2 = 0.799 | 17.319 kg/m3
303.15 K, 790.1 kPa, x2 = 0.799 | 17.342 kg/m3
303.15 K, 799.6 kPa, x2 = 0.799 | 17.59 kg/m3
323.15 K, 590.1 kPa, x2 = 0.244 | 13.582 kg/m3
323.15 K, 600.1 kPa, x2 = 0.244 | 13.847 kg/m3
323.15 K, 600.6 kPa, x2 = 0.249 | 13.833 kg/m3
323.15 K, 600.7 kPa, x2 = 0.249 | 13.848 kg/m3
323.15 K, 609.5 kPa, x2 = 0.244 | 14.1 kg/m3
323.15 K, 610.4 kPa, x2 = 0.249 | 14.09 kg/m3
323.15 K, 620.1 kPa, x2 = 0.249 | 14.354 kg/m3
323.15 K, 620.5 kPa, x2 = 0.244 | 14.391 kg/m3
323.15 K, 620.7 kPa, x2 = 0.249 | 14.369 kg/m3
323.15 K, 629.7 kPa, x2 = 0.244 | 14.643 kg/m3
323.15 K, 630.3 kPa, x2 = 0.249 | 14.633 kg/m3
323.15 K, 630.5 kPa, x2 = 0.244 | 14.658 kg/m3
323.15 K, 630.5 kPa, x2 = 0.249 | 14.64 kg/m3
323.15 K, 640.1 kPa, x2 = 0.249 | 14.889 kg/m3
323.15 K, 640.7 kPa, x2 = 0.244 | 14.937 kg/m3
323.15 K, 640.9 kPa, x2 = 0.249 | 14.923 kg/m3
323.15 K, 650.1 kPa, x2 = 0.249 | 15.168 kg/m3
323.15 K, 650.3 kPa, x2 = 0.244 | 15.201 kg/m3
323.15 K, 651.3 kPa, x2 = 0.244 | 15.223 kg/m3
323.15 K, 660 kPa, x2 = 0.249 | 15.436 kg/m3
323.15 K, 660.1 kPa, x2 = 0.249 | 15.447 kg/m3
